From patent US6602900B2, “Cyclopentane heptan(ENE)oic acid, 2-heteroarylalkenyl derivatives as therapeutic agents” (Allergan, Inc., priority 1992, dated 2003)
Like-named read-outs stand apart in the source and are kept apart here.

Key:
[1] = tested on: PGF2α-sensitive receptor provisionally termed FPVASC; experiment: Relaxation of smooth muscle of isolated rabbit jugular vein; format: cell-based
Experimental: (§1) Activity at different prostanoid receptors was measured in vitro in isolated smooth muscle preparations. FP-activity was measured as contraction of the isolated feline iris sphincter. EP1-activity was measured as contraction of the longitudinal smooth muscle of the isolated guinea pig ileum. EP3-activity was measured as inhibition of the twitch response induced by electrical field stimulation in the isolated guinea pig was deferens and as contraction of the longitudinal smooth muscle of the isolated chick ileum. Activity was also measured as relaxation of smooth muscle of isolated rabbit jugular vein a preparation which appears to contain a unique PGF2α-sensitive receptor provisionally termed FPVASC. TP-vasoconstrictor activity was measured as contraction of rings of the isolated rat thoracic aorta. Effects on platelets from healthy human donors were measured by incubating platelet-rich plasma with the compounds described herein. Inhibition of aggregation was determined by the ability of the compounds described herein to inhibit platelet aggregation in platelet-rich plasma induced by 20 μM ADP.

[2] = target: T1, EP3 receptor (UniProt A0A286XLZ9); experiment: EP3-activity: inhibition of the twitch response induced by electrical field stimulation in the isolated guinea pig vas deferens; format: cell-based; details: pa = printed beside some values, read-out: EC50 (nM) EP3, first value of the cell
T1 sequence (A0A286XLZ9 1-363): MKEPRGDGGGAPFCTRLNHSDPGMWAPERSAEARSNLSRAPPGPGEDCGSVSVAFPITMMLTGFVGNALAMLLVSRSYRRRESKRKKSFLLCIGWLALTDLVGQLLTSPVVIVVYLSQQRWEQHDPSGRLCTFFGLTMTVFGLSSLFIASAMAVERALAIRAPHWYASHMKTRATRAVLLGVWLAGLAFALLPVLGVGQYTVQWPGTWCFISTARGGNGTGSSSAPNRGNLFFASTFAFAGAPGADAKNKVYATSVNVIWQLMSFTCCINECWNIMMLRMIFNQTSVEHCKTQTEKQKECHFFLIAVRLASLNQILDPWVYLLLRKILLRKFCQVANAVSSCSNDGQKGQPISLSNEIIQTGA
Experimental: as §1

[3] = tested on: Dog eye (hyperemia); experiment: Ocular surface hyperemia in dogs after topical dosing; format: in vivo; design: scale not given here
[4] = tested on: Dog eye (miosis); experiment: Miosis in dogs after topical dosing; format: in vivo
[5] = target: T2, TP receptor (Rattus norvegicus, UniProt P34978); experiment: TP-vasoconstrictor activity: contraction of rings of the isolated rat thoracic aorta; format: cell-based
T2 construct: rings of the isolated rat thoracic aorta; from tissue; host or cells: isolated rat thoracic aorta rings
T2 sequence (P34978 1-341): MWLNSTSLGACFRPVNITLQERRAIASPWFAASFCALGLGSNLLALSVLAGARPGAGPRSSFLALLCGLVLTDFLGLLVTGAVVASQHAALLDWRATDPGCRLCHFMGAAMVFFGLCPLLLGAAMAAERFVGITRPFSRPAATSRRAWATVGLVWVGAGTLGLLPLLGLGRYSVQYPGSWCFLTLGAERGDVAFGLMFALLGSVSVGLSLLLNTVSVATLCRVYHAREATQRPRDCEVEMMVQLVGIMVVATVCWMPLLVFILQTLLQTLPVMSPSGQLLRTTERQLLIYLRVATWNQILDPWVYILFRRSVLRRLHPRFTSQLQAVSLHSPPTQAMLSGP
Experimental: as §1

[6] = target: T3, EP1 receptor (Cavia porcellus, UniProt A0A286XHJ6); experiment: EP1-activity: contraction of the longitudinal smooth muscle of the isolated guinea pig ileum; format: cell-based
T3 sequence (A0A286XHJ6 1-405): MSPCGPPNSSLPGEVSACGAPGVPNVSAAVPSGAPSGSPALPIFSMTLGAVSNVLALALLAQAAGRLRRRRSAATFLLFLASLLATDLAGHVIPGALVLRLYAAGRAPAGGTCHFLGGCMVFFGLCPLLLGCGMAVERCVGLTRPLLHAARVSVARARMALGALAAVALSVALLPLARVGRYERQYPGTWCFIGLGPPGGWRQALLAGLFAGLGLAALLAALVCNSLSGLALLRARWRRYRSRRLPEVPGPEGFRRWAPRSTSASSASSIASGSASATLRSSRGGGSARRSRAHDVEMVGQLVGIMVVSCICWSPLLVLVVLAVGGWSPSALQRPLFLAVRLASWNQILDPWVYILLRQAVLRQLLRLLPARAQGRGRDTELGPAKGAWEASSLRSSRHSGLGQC
Experimental: as §1

[7] = isolated rabbit jugular vein relaxation, read-out: EC50 (nM) FPVASC
[8] = read-out: rbFPv/EP4, Table of compounds 17a-25, unit inferred
[9] = isolated rat thoracic aorta contraction, read-out: EC50 (nM) TP
[10] = Table of compounds 17a-25, unit inferred, read-out: rtTPva

O=C(O)CCC/C=C\C[C@@H]1[C@@H](/C=C/[C@@H](O)CCc2cc3ccccc3o2)[C@H](O)C[C@@H]1O
EC50 [1, 7]: > 69000 nM
EC50 [2]: 9000 nM
Hyp (hyperemia score) ([3]; 0.01%): 0.17
Hyp (hyperemia score) ([3]; 0.1%): 0.13
Miosis ([4]; 0.01%): 0
Miosis ([4]; 0.1%): 0

CCS(=O)(=O)NC(=O)CCC/C=C\C[C@@H]1[C@@H](/C=C/[C@@H](O)CCc2ccc(Cl)s2)[C@H](O)C[C@@H]1O [Compound 20b, N-Ethylsulfonyl-7-[3α,5α-Dihydroxy-2-(3α-hydroxy-5-(2-(5-chloro)thienyl)-1E-pentenyl)cyclopentyl]-5Z-heptenamide]
EC50 [1, 8]: 1040 nM

Cc1ccc(CC[C@H](O)/C=C/[C@@H]2[C@@H](C/C=C\CCCC(=O)O)[C@@H](O)C[C@H]2O)s1
EC50 [1, 7]: > 7690 nM
EC50 [2]: 341 nM
EC50 [5, 9]: > 10000 nM
EC50 [6]: > 10000 nM

N#Cc1ccc(CC[C@H](O)/C=C/[C@@H]2[C@@H](C/C=C\CCCC(N)=O)[C@@H](O)C[C@H]2O)s1 [Compound 17b, 7-[3α,5α-Dihydroxy-2-(3α-hydroxy-5-(2-(5-cyano)thienyl)-1E-pentenyl)cyclopentyl]-5Z-heptenamide]
EC50 [1, 8]: > 256000 nM

O=C(O)CCC/C=C\C[C@@H]1[C@@H](/C=C/[C@@H](O)CCc2cccs2)[C@H](O)C[C@@H]1O
EC50 [1, 7]: 20 nM
EC50 [2]: 43 nM
Hyp (hyperemia score) ([3]; 0.1%): 0.38
Miosis ([4]; 0.1%): pinpt
EC50 [5, 9]: 4010 nM
EC50 [6]: > 10000 nM

O=C(O)CCC/C=C\C[C@@H]1[C@@H](CCC(O)CCc2ccoc2)[C@H](O)C[C@@H]1O (some centres unmarked)
EC50 [1, 7]: > 5880 nM

O=C(O)CCC/C=C\C[C@@H]1[C@@H](/C=C/[C@@H](O)CCc2sccc2Cl)[C@H](O)C[C@@H]1O
EC50 [1, 7]: 122 nM
EC50 [5, 9]: 3530 nM
EC50 [6]: > 10000 nM

NC(=O)CCC/C=C\C[C@@H]1[C@@H](/C=C/[C@@H](O)CCc2ccsc2)[C@H](O)C[C@@H]1O
EC50 [1, 7]: 3.6 nM
EC50 [2]: > 10000 nM
EC50 [5, 9]: > 10000 nM
EC50 [6]: > 10000 nM

N#Cc1ccc(CC[C@H](O)/C=C/[C@@H]2[C@@H](C/C=C\CCCC(=O)O)[C@@H](O)C[C@H]2O)s1 [Compound 17a, 7-[3α,5α-Dihydroxy-2-(3α-hydroxy-5-(2-(5-cyano)thienyl)-1E-pentenyl)cyclopentyl]-5Z-heptenoic acid]
EC50 [1, 8]: 112 nM
EC50 [5, 10]: ~10000 nM

NC(=O)CCC/C=C\C[C@@H]1[C@@H](/C=C/[C@@H](O)CCc2cc(Cl)sc2Cl)[C@H](O)C[C@@H]1O
EC50 [1, 7]: 82 nM
Hyp (hyperemia score) ([3]; 0.1%): 1.2
Miosis ([4]; 0.1%): pinpoint
EC50 [5, 9]: > 10000 nM

O=C(O)CCC/C=C\C[C@@H]1[C@@H](/C=C/[C@@H](O)CCc2ccoc2)[C@H](O)C[C@@H]1O
EC50 [2]: 83 nM
Hyp (hyperemia score) ([3]; 0.01%): 0.83
Hyp (hyperemia score) ([3]; 0.1%): 0.38
Miosis ([4]; 0.01%): mild
Miosis ([4]; 0.1%): pinpoint
EC50 [5, 9]: 5400 nM
EC50 [6]: > 10000 nM

O=C(CCC/C=C\C[C@@H]1[C@@H](/C=C/[C@@H](O)CCc2ccc(Cl)s2)[C@H](O)C[C@@H]1O)NS(=O)(=O)C(F)(F)F [Compound 20c, N-Trifluoromethylsulfonyl-7-[3α,5α-Dihydroxy-2-(3α-hydroxy-5-(2-(5-chloro)thienyl)-1E-pentenyl)cyclopentyl]-5Z-heptenamide]
EC50 [1, 8]: 221 nM
EC50 [5, 10]: > 10000 nM

O=C(O)CCC/C=C\C[C@@H]1[C@@H](/C=C/[C@H](O)CCc2nccs2)[C@H](O)C[C@@H]1O
EC50 [1, 7]: 28300 nM

O=C(O)CCC/C=C\C[C@@H]1[C@@H](/C=C/[C@@H](O)CCc2ccsc2)[C@H](O)C[C@@H]1O [drawing 12]
EC50 [1, 7]: 9.2 nM
EC50 [2]: 400 nM
Hyp (hyperemia score) ([3]; 0.1%): 0.6
Miosis ([4]; 0.1%): pinpoint
EC50 [5, 9]: 2460 nM
EC50 [6]: 2000 nM

O=C(O)CCC/C=C\C[C@@H]1[C@@H](/C=C/[C@@H](O)CCc2nccs2)[C@H](O)C[C@@H]1O
EC50 [1, 7]: 1000 nM
Hyp (hyperemia score) ([3]; 0.1%): 0.6
Miosis ([4]; 0.1%): pinpoint

NC(=O)CCC/C=C\C[C@@H]1[C@@H](/C=C/[C@H](O)CCc2ccsc2)[C@H](O)C[C@@H]1O
Hyp (hyperemia score) ([3]; 0.1%): 0.72
Miosis ([4]; 0.1%): pin

CO[C@H](/C=C/[C@@H]1[C@@H](C/C=C\CCCC(=O)O)[C@@H](O)C[C@H]1O)CCc1ccsc1
EC50 [1, 7]: 2.1 nM
EC50 [2]: 189 nM
Hyp (hyperemia score) ([3]; 0.1%): 0.83
Miosis ([4]; 0.1%): pinpt
EC50 [5, 9]: ~10000 nM
EC50 [6]: > 10000 nM

CCS(=O)(=O)NC(=O)CCC/C=C\C[C@@H]1[C@@H](/C=C/[C@@H](O)CCc2ccc(I)s2)[C@H](O)C[C@@H]1O [Compound 21b, N-Ethylsulfonyl-7-[3α,5α-Dihydroxy-2-(3α-hydroxy-5-(2-(5-iodo)thienyl)-1E-pentenyl)cyclopentyl]-5Z-heptenamide]
EC50 [1, 8]: 189 nM

CS(=O)(=O)NC(=O)CCC/C=C\C[C@@H]1[C@@H](/C=C/[C@@H](O)CCc2ccc(Cl)s2)[C@H](O)C[C@@H]1O [Compound 20a, N-Methylsulfonyl-7-[3α,5α-Dihydroxy-2-(3α-hydroxy-5-(2-(5-chloro)thienyl)-1E-pentenyl)cyclopentyl]-5Z-heptenamide]
EC50 [1, 8]: 6070 nM

CC(C)OC(=O)CCC/C=C\C[C@@H]1[C@@H](/C=C/[C@@H](O)CCc2ccc(C#N)s2)[C@H](O)C[C@@H]1O [Compound 17c, Isopropyl-7-[3α,5α-Dihydroxy-2-(3α-hydroxy-5-(2-(5-cyano)thienyl)-1-E-pentenyl)cyclopentyl]-5Z-heptenoate]
EC50 [1, 8]: 6510 nM

O=C(O)CCC/C=C\C[C@@H]1[C@@H](CC[C@@H](O)CCc2ccsc2)[C@H](O)C[C@@H]1O
EC50 [1, 7]: 545 nM
EC50 [2]: 105 nM
EC50 [5, 9]: 4740 nM
EC50 [6]: > 10000 nM

O=C(O)CCC/C=C\C[C@@H]1[C@@H](/C=C/[C@@H](O)CCc2cc(Br)cs2)[C@H](O)C[C@@H]1O
EC50 [1, 7]: 16 nM
EC50 [2]: 50 nM
EC50 [5, 9]: 371 nM
EC50 [6]: > 10000 nM

O=C(O)CCC/C=C\C[C@@H]1[C@@H](/C=C/[C@@H](O)CCc2cc3ccccc3s2)[C@H](O)C[C@@H]1O
EC50 [1, 7]: 2660 nM
EC50 [2]: ~10000 nM

Cc1sccc1CC[C@H](O)/C=C/[C@@H]1[C@@H](C/C=C\CCCC(=O)O)[C@@H](O)C[C@H]1O
EC50 [1, 7]: > 833 nM
EC50 [2]: 355 nM
EC50 [5, 9]: 3980 nM
EC50 [6]: > 10000 nM

O=C(CCC/C=C\C[C@@H]1[C@@H](/C=C/[C@@H](O)CCc2ccc(I)s2)[C@H](O)C[C@@H]1O)NS(=O)(=O)C(F)(F)F [Compound 21c, N-Trifluoromethylsulfonyl-7-[3α,5α-Dihydroxy-2-(3α-hydroxy-5-(2-(5-iodo)thienyl)-1E-pentenyl)cyclopentyl]-5Z-heptenamide]
EC50 [1, 8]: 36 nM

O=C(O)CCC/C=C\C[C@@H]1[C@@H](/C=C/[C@@H](O)CCc2sccc2F)[C@H](O)C[C@@H]1O [Compound 18b]
EC50 [1, 8]: 2.9 nM
EC50 [5, 10]: 3500 nM

CCc1ccc(CC[C@H](O)/C=C/[C@@H]2[C@@H](C/C=C\CCCC(=O)O)[C@@H](O)C[C@H]2O)s1
EC50 [1, 7]: 21 nM
EC50 [5, 9]: > 10000 nM

CS(=O)(=O)NC(=O)CCC/C=C\C[C@@H]1[C@@H](/C=C/[C@@H](O)CCc2ccc(I)s2)[C@H](O)C[C@@H]1O [Compound 21a, N-Methylsulfonyl-7-[3α,5α-Dihydroxy-2-(3α-hydroxy-5-(2-(5-iodo)thienyl)-1E-pentenyl)cyclopentyl]-5Z-heptenamide]
EC50 [1, 8]: 1820 nM

O=C(O)CCC/C=C\C[C@@H]1[C@@H](/C=C/[C@H](O)CCc2ccsc2)[C@H](O)C[C@@H]1O
EC50 [1, 7]: 58 nM
